Data on 23 molecules can be found in patent US10118902B2 (Sanford Burnham Prebys Medical Discovery Institute, priority 2014, dated 2018).

Structures are written as SMILES.

neurotensin receptor 1 (NTR1), sequence (P30989 whole entry, species assumed): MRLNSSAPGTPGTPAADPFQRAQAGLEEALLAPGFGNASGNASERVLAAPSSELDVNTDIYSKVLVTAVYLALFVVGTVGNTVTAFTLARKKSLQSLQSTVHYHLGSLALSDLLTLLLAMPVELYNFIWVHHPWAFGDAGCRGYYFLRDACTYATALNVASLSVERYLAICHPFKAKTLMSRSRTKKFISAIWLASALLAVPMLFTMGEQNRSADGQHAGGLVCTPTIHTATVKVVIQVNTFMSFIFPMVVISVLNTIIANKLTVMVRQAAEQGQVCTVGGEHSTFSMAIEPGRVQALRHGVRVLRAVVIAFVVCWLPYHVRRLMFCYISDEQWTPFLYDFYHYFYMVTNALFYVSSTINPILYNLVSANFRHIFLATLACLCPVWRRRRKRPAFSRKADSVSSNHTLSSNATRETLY

This experiment addresses neurotensin receptor 1 (NTR1) (Homo sapiens (Human), UniProt P30989). Description: NTR1 dose response, high-content imaging beta-arrestin-GFP assay in NTR1-U2OS cells. Particulars: read-out: EC50. The class given is cell-based. An excerpt:
The cell lines utilized in the high-content imaging assays, which include the NTR1-, NTR2-, and GPR35-U2OS osteosarcomas, were obtained from the laboratory of Dr. Lawrence Barak at the Duke University Medical Center. The media used in the culture of the cell lines, as well as the assays themselves, consisted of Minimum Essential Medium (15-010-CM) and L-glutamine (25-005-CL) from Cellgro/Mediatech (Manassas, Va.), fetal bovine serum (SH30396.03) from Hyclone (Logan, Utah), penicillin-streptomycin solution (PS-20) from Omega Scientific in Tarzana, Calif., G418 (ant-gn-1) from Invivogen (San Diego, Calif.), and zeocin (R250-01) from Invitrogen (Carlsbad, Calif.). Cell lines were cultured in T225 tissue culture flasks (431082) supplied by Corning (Corning, N.Y.). Additional reagents employed include Dulbecco's Phosphate-Buffered Saline (DPBS) (21-031CV) from Cellgro/Mediatech, Trypsin-EDTA 0.05% (25300) from Invitrogen, paraformaldehyde (30528954) from Acros Organics (Geel, Belgium), Hoechst 33342 (H3570) from Invitrogen. The high-content assays were run in 1536-well plates (29326) supplied by Aurora Biotechnology (Poway, Calif.) and utilized aluminum plate seals (T592100) from E&K Scientific (Santa Clara, Calif.). […]
The high-content imaging based NTR1 primary screen in 1536-well format was utilized to assay the MLSMR library of chemical entities in the following manner. On day one, 4 uL of a cell suspension containing 350,000 NTR1-U2OS cells per mL is added to each well of a 1536-well assay plate. Cells are plated in MEM medium containing 2.5% Fetal Bovine Serum, 1% Penicillin/Streptomycin solution, 1% L-Glutamine, 400 ug/mL G418, and 200 ug/mL Zeocin. The assay plates are then incubated overnight at 37° C., under 5% CO2. Following the overnight incubation, a volume of 60 nL of the compounds at 2 mM in DMSO (final 20 μM, 1% DMSO) was transferred to columns 5-48 of the assay plates using a LabCyte Echo Liquid Handler. Next, 60 nL of DMSO were dispensed to columns 1-4, which served as the positive and neutral control wells. […] The assay plates were centrifuged on an Eppendorf 5810 centrifuge at 1000 rpm for 1 min to ensure even liquid levels in the wells of the assay plates. The assay plates were then returned to the incubator for 1 hour. Following the hour-long incubation at 37° C., the cells in each well were fixed with 4 uL of 6% paraformaldehyde added with a Multidrop Combi. The assay plates were centrifuged as before and incubated at room temperature for 1 hour. On the Kalypsys, plates were then aspirated down to 2.5 uL per well and washed twice with 11 uL per well of DPBS, followed by a final aspiration to 2.5 uL per well. On the Combi dispenser, 5 uL of 5 ug/mL Hoechst 33342 diluted in DPBS was added to each well of assay plates. The plates were again centrifuged as previously described, sealed, and incubated for at least 1 hour prior to being loaded on a PerkinElmer Opera QEHS.
Image acquisition was performed with a 45 plate capacity loader/stacker and the following settings: 40×0.6 NA air objective, acquisition camera set to 2-by-2 binning for an image size of 688 by 512 pixels, beta-arrestin-GFP acquired using 488 nm laser excitation and 540/75 nm emission filters, DAPI (nuclei) using 365 nm Xenon lamp excitation and 450/50 nm emission filters, 3 fields per well. Image analysis was performed using the Acapella Spot Detection Algorithm. For analysis settings and the metrics employed in the data analyses, please refer to supplemental information.
Compounds that were successfully confirmed in quadruplicate at 20 uM were then run in dose response in the primary assay. As with the single concentration hit confirmation, the assay was performed in an identical manner as the primary screen with the following modifications. […]
In general, EC50 refers to the concentration giving half of the maximal effect. Turning to `CN(C)c1ccccc1C1CCN(c2nc(C3(C(F)(F)F)CC3)nc3ccc(N(C)CCO)cc23)CC1` [Example 49, 2-{[4-[4-(2-dimethylamino-phenyl)-piperidin-1-yl]-2-(1-trifluoromethyl-cyclopropyl)-quinazolin-6-yl]-methyl-amino}-ethanol], the EC50 was 0.5 to 2 µM.

In the case of `CN(C)c1ccccc1C1CCN(c2nc(C3(C(F)(F)F)CC3)nc3ccc(N(C)CCN4CCOCC4)cc23)CC1` [Example 50, [4-[4-(2-dimethylamino-phenyl)-piperidin-1-yl]-2-(1-trifluoromethyl-cyclopropyl)-quinazolin-6-yl]-methyl-(2-morpholin-4-yl-ethyl)-amine], the concentration for a half-maximal effect (EC50) was greater than 10 µM.

In the case of `COc1ccccc1C1CCN(c2nc(C3(C)CCCC3)nc3ccc(N(C)CCO)cc23)CC1` [Example 51, 2-{[4-[4-(2-methoxy-phenyl)-piperidin-1-yl]-2-(1-methyl-cyclopentyl)-quinazolin-6-yl]-methyl-amino}-ethanol], the 50% effective concentration (EC50) lay within 2 to 10 µM.

In the case of `COc1ccccc1C1CCN(c2nc(C3(C)CCCC3)nc3ccc(N(C)CCN4CCOCC4)cc23)CC1` [Example 52], the EC50 fell in the range of 2 to 10 µM.

On to `CN(C)c1ccccc1C1CCN(c2nc(C3(C)CCCC3)nc3ccc(N(C)CCO)cc23)CC1` [Example 53, {[4-[4-(2-Dimethylamino-phenyl)-piperidin-1-yl]-2-(1-methyl-cyclopentyl)-quinazolin-6-yl]-methyl-amino}-ethanol], for which the concentration for a half-maximal effect (EC50) lay in the range of 2 to 10 µM.

As for `CN(C)c1ccccc1C1CCN(c2nc(C3(C)CCCC3)nc3ccc(N(C)CCN4CCOCC4)cc23)CC1` [Example 54, [4-[4-(2-dimethylamino-phenyl)-piperidin-1-yl]-2-(1-methyl-cyclopentyl)-quinazolin-6-yl]-methyl-(2-morpholin-4-yl-ethyl)-amine], the concentration for a half-maximal effect (EC50) was 2 to 10 µM.

`COc1ccccc1C1CCN(c2nc(C3(C(F)(F)F)CCCC3)nc3ccc(N(C)CCO)cc23)CC1` [Example 55, 2-{[4-[4-(2-methoxy-phenyl)-piperidin-1-yl]-2-(1-trifluoromethyl-cyclopentyl)-quinazolin-6-yl]-methyl-amino}-ethanol]: the half-maximal effective concentration (EC50) was 2 to 10 µM.

For `COc1ccccc1C1CCN(c2nc(C3(C(F)(F)F)CCCC3)nc3ccc(N(C)CCN4CCOCC4)cc23)CC1` [Example 56, [4-[4-(2-methoxy-phenyl)-piperidin-1-yl]-2-(1-trifluoromethyl-cyclopentyl)-quinazolin-6-yl]-methyl-(2-morpholin-4-yl-ethyl)-amine], the EC50 was in the range of 2 to 10 µM.

As for `CN(C)c1ccccc1C1CCN(c2nc(C3(C(F)(F)F)CCCC3)nc3ccc(N(C)CCO)cc23)CC1` [Example 57, 2-{[4-[4-(2-dimethylamino-phenyl)-piperidin-1-yl]-2-(1-trifluoromethyl-cyclopentyl)-quinazolin-6-yl]-methyl-amino}-ethanol], the half-maximal effective concentration (EC50) fell in the range of 0.5 to 2 µM.

`CN(C)c1ccccc1C1CCN(c2nc(C3(C(F)(F)F)CCCC3)nc3ccc(N(C)CCN4CCOCC4)cc23)CC1` [Example 58, [4-[4-(2-dimethylamino-phenyl)-piperidin-1-yl]-2-(1-trifluoromethyl-cyclopentyl)-quinazolin-6-yl]-methyl-(2-morpholin-4-yl-ethyl)-amine]: the EC50 lay within 2 to 10 µM.

For the molecule `COc1ccccc1C1CCN(c2nc(C3(F)CCC3)nc3ccc(N(C)CCO)cc23)CC1` [Example 59, 2-({2-(1-fluoro-cyclobutyl)-4-[4-(2-methoxy-phenyl)-piperidin-1-yl]-quinazolin-6-yl}-methyl-amino)-ethanol], the EC50 is less than 0.5 µM.

In the case of `COc1ccccc1C1CCN(c2nc(C3(F)CCC3)nc3ccc(N(C)CCN4CCOCC4)cc23)CC1` [Example 60, {2-(1-fluoro-cyclobutyl)-4-[4-(2-methoxy-phenyl)-piperidin-1-yl]-quinazolin-6-yl}-methyl-(2-morpholin-4-yl-ethyl)-amine], the EC50 was less than 0.5 µM.

In the case of `CN(C)c1ccccc1C1CCN(c2nc(C3(F)CCC3)nc3ccc(N(C)CCO)cc23)CC1` [Example 61, 2-{[4-[4-(2-dimethylamino-phenyl)-piperidin-1-yl]-2-(1-fluoro-cyclobutyl)-quinazolin-6-yl]-methyl-amino}-ethanol], the half-maximal effective concentration (EC50) was less than 0.5 µM.

As for `CN(C)c1ccccc1C1CCN(c2nc(C3(F)CCC3)nc3ccc(N(C)CCN4CCOCC4)cc23)CC1` [Example 62, [4-[4-(2-dimethylamino-phenyl)-piperidin-1-yl]-2-(1-fluoro-cyclobutyl)-quinazolin-6-yl]-methyl-(2-morpholin-4-yl-ethyl)-amine], the EC50 lay in the range of 0.5 to 2 µM.

Consider `COc1ccccc1C1CCN(c2nc(C3(C(F)(F)F)CCC3)nc3ccc(N(C)CCO)cc23)CC1` [Example 63, 2-{[4-[4-(2-methoxy-phenyl)-piperidin-1-yl]-2-(1-trifluoromethyl-cyclobutyl)-quinazolin-6-yl]-methyl-amino}-ethanol], for which the EC50 fell in the range of 0.5 to 2 µM.

As to `COc1ccccc1C1CCN(c2nc(C3(C(F)(F)F)CCC3)nc3ccc(N(C)CCN4CCOCC4)cc23)CC1` [Example 64, [4-[4-(2-methoxy-phenyl)-piperidin-1-yl]-2-(1-trifluoromethyl-cyclobutyl)-quinazolin-6-yl]-methyl-(2-morpholin-4-yl-ethyl)-amine], the EC50 was greater than 10 µM.

Regarding `CN(C)c1ccccc1C1CCN(c2nc(C3(C(F)(F)F)CCC3)nc3ccc(N(C)CCO)cc23)CC1` [Example 65, 2-{[4-[4-(2-Dimethylamino-phenyl)-piperidin-1-yl]-2-(1-trifluoromethyl-cyclobutyl)-quinazolin-6-yl]-methyl-amino}-ethanol], the 50% effective concentration (EC50) is 2 to 10 µM.

For the molecule `CN(C)c1ccccc1C1CCN(c2nc(C3(C(F)(F)F)CCC3)nc3ccc(N(C)CCN4CCOCC4)cc23)CC1` [Example 66, [4-[4-(2-dimethylamino-phenyl)-piperidin-1-yl]-2-(1-trifluoromethyl-cyclobutyl)-quinazolin-6-yl]-methyl-(2-morpholin-4-yl-ethyl)-amine], the EC50 was greater than 10 µM.

For `CN(C)c1ccccc1C1CCN(c2nc(C3(C)CCC3)nc3ccc(N(C)CCN4CCOCC4)cc23)CC1` [Example 67, [4-[4-(2-dimethylamino-phenyl)-piperidin-1-yl]-2-(1-methyl-cyclobutyl)-quinazolin-6-yl]-methyl-(2-morpholin-4-yl-ethyl)-amine], the EC50 was greater than 10 µM.

Regarding `CN(C)c1ccccc1C1CCN(c2nc(C3(C)CCC3)nc3ccc(N(C)CCO)cc23)CC1` [Example 68, 2-{[4-[4-(2-dimethylamino-phenyl)-piperidin-1-yl]-2-(1-methyl-cyclobutyl)-quinazolin-6-yl]-methyl-amino}-ethanol], the EC50 was 0.5 to 2 µM.

Consider `COc1ccccc1C1CCN(c2nc(C3(C)CCC3)nc3ccc(N(C)CCN4CCOCC4)cc23)CC1` [Example 69, [4-[4-(2-methoxy-phenyl)-piperidin-1-yl]-2-(1-methyl-cyclobutyl)-quinazolin-6-yl]-methyl-(2-morpholin-4-yl-ethyl)-amine], for which the concentration giving a half-maximal response (EC50) lay within 0.5 to 2 µM.

For the molecule `COc1ccccc1C1CCN(c2nc(C3(C)CCC3)nc3ccc(N(C)CCO)cc23)CC1` [Example 70, 2-{[4-[4-(2-Methoxy-phenyl)-piperidin-1-yl]-2-(1-methyl-cyclobutyl)-quinazolin-6-yl]-methyl-amino}-ethanol], the EC50 was in the range of 0.5 to 2 µM.

Take `COc1ccccc1C1CCN(c2nc(C3(F)CCCC3)nc3ccc(N(C)CCN4CCOCC4)cc23)CC1` [Example 71, {2-(1fluoro-cyclopentyl)-4-[4-(2-methoxy-phenyl)-piperidin-1-yl]-quinazolin-6-yl}-methyl-(2-morpholin-4-yl-ethyl)-amine]: the EC50 was in the range of 2 to 10 µM.
